In US11116219B2, “Method for controlling discharge-type multidrug resistant plant diseases” (SUMITOMO CHEMICAL COMPANY, LIMITED, priority 2017, dated 2021):

Legend:
[1] = system: wheat Septoria leaf blotch fungus (Zymoseptoria tritici) wild-type fungus strain; test: Control test against wheat Septoria leaf blotch fungus, wild-type fungus strain (titer plate growth, absorbance at 600 nm); type: cell-based; conditions: PDB culture media, 18° C., 4 days
Method: (§1) Control test against Efflux type multidrug resistant wheat Septoria leaf blotch fungus (Zymoseptoria tritici)
(§2) Each of the present compound (1) and tolnaftrate was diluted with dimethyl sulfoxide to a prescribed concentration thereof, respectively. Each of the chemical solutions comprising the respective testing compound was dispensed into a titer plate (with 96 wells) in the amount of 1 μL. […] The plate was cultured at 18° C. for 4 days, thereby allowing each wheat Septoria leaf blotch fungus to undergo proliferation, and the absorbance at 600 nm of each well of the titer plate was then measured to determine a degree of growth of the wheat Septoria leaf blotch fungus (treated group). […]
(§3) The efficacy was calculated from the degree of the growth by the below-mentioned “Equation 1”, and then each EC50 value of the testing compound, respectively against the efflux type multidrug resistant fungus strains and the wild-type fungus strain was calculated. Next, as shown in the below-mentioned “Equation 2”, an EC50 value ratio was calculated by dividing an EC50 value against the efflux type multidrug resistant fungus strains by an EC50 value against the wild-type fungus strain. […]

[2] = system: efflux type multidrug resistant fungus strain 3: ABC transporter and MFS transporter-overexpressing fungus strain (Bc-103) of grapes gray mold fungus (Botrytis …); test: Control test against efflux type multidrug resistant grapes gray mold fungus, strain 3; type: cell-based, Botrytis cinerea
Method: (§4) Control Test Against Efflux Type Multidrug Resistant Grapes Gray Mold Fungus (Botrytis cinerea)
(§5) Each of the present compound (1), fludioxonil and tolnaftrate was diluted with dimethyl sulfoxide to a prescribed concentration thereof, respectively. Each of the chemical solutions comprising the respective testing compound was dispensed into a titer plate (with 96 wells) in the amount of 1 μL. […] The plate was cultured at 18° C. for 2 days, thereby allowing each grapes gray mold fungus to undergo proliferation, and the absorbance at 600 nm of each well of the titer plate was then measured to determine a degree of growth of each of the grapes gray mold fungi (treated group). […]
(§6) The efficacy was calculated from the degree of the growth by the below-mentioned “Equation 1”, and then each EC50 value of the testing compound, respectively against the efflux type multidrug resistant fungus strains and the wild-type fungus strain was calculated. Also, an EC50 value ratio was calculated by the above-mentioned “Equation 2”.

[3] = system: Efflux type multidrug resistant wheat Septoria leaf blotch fungus (Zymoseptoria tritici), fungus strain St 106-6; test: Control test against efflux type multidrug resistant wheat Septoria leaf blotch fungus (titer plate growth, absorbance at 600 nm); type: cell-based
Method: as §1, §2, §3

[4] = system: grapes gray mold fungus (Botrytis cinerea) wild-type fungus strain; test: Control test against grapes gray mold fungus, wild-type fungus strain (titer plate growth, absorbance at 600 nm); type: cell-based; conditions: PDB culture media, 18° C., 2 days
Method: as §4, §5, §6

[5] = system: efflux type multidrug resistant fungus strain 2: MFS transporter-overexpressing fungus strain (Bc-107) of grapes gray mold fungus (Botrytis cinerea); test: Control test against efflux type multidrug resistant grapes gray mold fungus, strain 2; type: cell-based
Method: as §4, §5, §6

[6] = system: efflux type multidrug resistant fungus strain 1: ABC transporter-overexpressing fungus strain (Bc-56) of grapes gray mold fungus (Botrytis cinerea); test: Control test against efflux type multidrug resistant grapes gray mold fungus, strain 1; type: cell-based
Method: as §4, §5, §6

Cn1c(=O)c2sc3c(=O)n(C)c(=O)c3sc2c1=O [Present compound (1)] was tested, and the “EC50 value, Wild-type fungus strain” value [1] was 1.2 ppm, the “EC50 value, Efflux type multidrug resistant fungus strain 3” value ([2]; Botrytis cinerea Bc-103 (ABC and MFS transporter-overexpressing), 18° C., 2 days) was 2.4 ppm and the “EC50 value ratio 3” value ([2]; EC50 against efflux type multidrug resistant strain 3 / EC50 against wild-type, Botrytis cinerea) was 1.3. For the same molecule, the EC50 value ratio ([3]; EC50 against efflux type multidrug resistant fungus strain / EC50 against wild-type fungus strain, Zymoseptoria tritici) was 1.1, the “EC50 value, Efflux type multidrug resistant fungus strain” value ([3]; Zymoseptoria tritici St 106-6, PDB culture media, 18° C., 4 days) was 1.3 ppm and the “EC50 value, Wild-type fungus strain” value [4] was 1.9 ppm. The “EC50 value, Efflux type multidrug resistant fungus strain 2” value ([5]; Botrytis cinerea Bc-107 (MFS transporter-overexpressing), 18° C., 2 days) was 1.7 ppm, the “EC50 value ratio 2” value ([5]; EC50 against efflux type multidrug resistant strain 2 / EC50 against wild-type, Botrytis cinerea) was 0.89 and the “EC50 value, Efflux type multidrug resistant fungus strain 1” value ([6]; Botrytis cinerea Bc-56 (ABC transporter-overexpressing), 18° C., 2 days) was 1.7 ppm. For the same molecule, the “EC50 value ratio 1” value ([6]; EC50 against efflux type multidrug resistant strain 1 / EC50 against wild-type, Botrytis cinerea) was 0.89.
